Laboratory results from US9056865B2, “Pyridine-2-derivatives as smoothened receptor modulators” (Pfizer Inc., priority 2010, dated 2015).

How the values were obtained:
[1] = test system: Gli-Luc/MEF cells; assay: Gli-Luc/MEF assay; type: cell-based, mouse; settings: Mus musculus, MEF; Shh-stimulated luciferase, 48 hours
In short: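 Mouse embryonic fibroblasts from Gli-Luc transgenic mice (luciferase under Gli response element) dosed with compounds (final […], 3-fold series), then stimulated with recombinant mouse Shh at final 2 μg/mL. After 48 h at 37 °C, luminescence read by Bright-Glo; IC50 from inhibition of Shh-induced signal.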

[2] = biological target: human Smo (Homo sapiens (Human), UniProt Q99835); assay: Smo radioligand competition binding assay; settings: for inhibition at 0.05 µM: 0.05 μM test compound, read-out: Smo % inh. @ 0.05 μM
In short: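 Membranes from HEK293 cells expressing surface human Smo 181-781 (40 μg protein/well) incubated 2 h at room temperature with test compound and tritiated Smo antagonist (3 nM), pH 7.5 Tris buffer; filtration and scintillation counting. Non-specific binding defined with 30 μM cold antagonist; IC50 from four-parameter sigmoidal fit.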

human Smo, sequence (Q99835 181-787): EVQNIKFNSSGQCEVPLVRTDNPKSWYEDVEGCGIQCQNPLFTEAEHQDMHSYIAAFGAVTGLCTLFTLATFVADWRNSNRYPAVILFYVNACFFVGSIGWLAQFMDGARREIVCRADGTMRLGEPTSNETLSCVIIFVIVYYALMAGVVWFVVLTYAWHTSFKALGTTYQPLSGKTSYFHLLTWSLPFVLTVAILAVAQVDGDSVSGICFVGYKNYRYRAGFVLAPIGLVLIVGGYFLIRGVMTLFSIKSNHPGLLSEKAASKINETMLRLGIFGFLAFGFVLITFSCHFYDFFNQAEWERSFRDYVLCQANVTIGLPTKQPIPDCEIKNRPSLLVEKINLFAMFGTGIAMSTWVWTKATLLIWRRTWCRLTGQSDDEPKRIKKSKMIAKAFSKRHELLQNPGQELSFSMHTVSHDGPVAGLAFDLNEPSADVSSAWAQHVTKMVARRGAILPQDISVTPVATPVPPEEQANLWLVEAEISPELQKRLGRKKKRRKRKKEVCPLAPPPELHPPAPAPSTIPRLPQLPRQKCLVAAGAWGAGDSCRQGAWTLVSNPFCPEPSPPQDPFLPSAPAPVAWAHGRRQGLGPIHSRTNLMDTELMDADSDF

SMILES	IC50 [1] [nM]	IC50 [2] [nM]	inhibition at 0.05 µM [2] [%]
Cc1cnc(-c2cc(N3CCC(NC(=O)CCS(C)(=O)=O)CC3)ncc2Cl)c(C)c1 [Example A-122, N-[1-(5′-chloro-3,5-dimethyl-2,4′-bipyridin-2′-yl)piperidin-4-yl]-3-(methylsulfonyl)propanamide]	5.49	14.7	103
Cc1cccnc1-c1nc(N2CCC(O)CC2)ncc1Cl [Example A-30, 1-[5-chloro-4-(3-methylpyridin-2-yl)pyrimidin-2-yl]piperidin-4-ol]	246	160	77.7
Cc1cccnc1-c1cc(N2CCC(CNS(C)(=O)=O)CC2)ncc1Cl [Example A-48, N-{[1-(5′-chloro-3-methyl-2,4′-bipyridin-2′-yl)piperidin-4-yl]methyl}methanesulfonamide]	48	57	82
Cc1cnc(-c2c(Cl)cnc(N3CCC(NC(=O)CCS(C)(=O)=O)CC3)c2F)c(C)c1 [Example A-139, N-(1-(5′-chloro-3′-fluoro-3,5-dimethyl-2,4′-bipyridin-2′-yl)piperidin-4-yl)-3-(methylsulfonyl)propanamide]	1.96	17.8	101
Cc1cc(C#N)cnc1-c1cc(N2CCC(NS(C)(=O)=O)CC2)ncc1Cl [Example A-125, N-[1-(5′-chloro-5-cyano-3-methyl-2,4′-bipyridin-2′-yl)piperidin-4-yl]methanesulfonamide]	32.3	95.6	82.3
Cc1cnc(-c2cc(N3CCN(CCS(C)(=O)=O)CC3)ncc2Cl)c(C)c1 [Example A-112, 5′-chloro-3,5-dimethyl-2′-{4-[2-(methylsulfonyl)ethyl]piperazin-1-yl}-2,4′-bipyridine]	25.3	124	72.9
CC(=O)N1CCN(c2cc(-c3ncc(C)cc3C)c(Cl)cn2)CC1 [Example A-100, 2′-(4-acetylpiperazin-1-yl)-5′-chloro-3,5-dimethyl-2,4′-bipyridine]	50.2	113	85.6
Cc1cccnc1-c1cc(N2CCC(C(=O)N[C@H]3CC[C@H](O)CC3)CC2)ncc1Cl (stereo in doubt) [Example A-71, 1-(5′-chloro-3-methyl-2,4′-bipyridin-2′-yl)-N-(trans-4-hydroxycyclohexyl)piperidine-4-carboxamide]	39.4	72.9	85.7
Cc1ccc(-c2nc(N3CCC(NS(C)(=O)=O)CC3)ccc2Br)nc1 [Example A-120, N-[1-(3-bromo-5′-methyl-2,2′-bipyridin-6-yl)piperidin-4-yl]methanesulfonamide]	29	40	93
Cc1cccnc1-c1cc(N2CCC(C(=O)N[C@@H]3c4ccccc4C[C@@H]3O)CC2)ncc1Cl [Example A-58, 1-(5′-chloro-3-methyl-2,4′-bipyridin-2′-yl)-N-[(1R,2S)-2-hydroxy-2,3-dihydro-1H-inden-1-yl]piperidine-4-carboxamide]	38.8	184	70.3
O=C(CCO)NC1CCN(c2ccc(Cl)c(-c3ccccn3)n2)CC1 [Example A-130, N-[1-(3-chloro-2,2′-bipyridin-6-yl)piperidin-4-yl]-3-hydroxypropanamide]	35.5	–	81.3
CS(=O)(=O)NC1CCN(c2cc(-c3ncc(Cl)cc3F)c(Cl)cn2)CC1 [Example A-17, N-[1-(5,5′-dichloro-3-fluoro-2,4′-bipyridin-2′-yl)piperidin-4-yl]methanesulfonamide]	60	511	63
Cc1cccnc1-c1cc(N2CCC(C(=O)NC3CCOC3)CC2)ncc1Cl (centres unmarked) [Example A-78, 1-(5′-chloro-3-methyl-2,4′-bipyridin-2′-yl)-N-(tetrahydrofuran-3-yl)piperidine-4-carboxamide]	87.3	295	70.1
Cc1cccnc1-c1cc(N2CCC3(CC2)CNC(=O)O3)ncc1Cl [Example A-21, 8-(5′-chloro-3-methyl-2,4′-bipyridin-2′-yl)-1-oxa-3,8-diazaspiro[4.5]decan-2-one]	114	297	65.9
CS(=O)(=O)NC1CCN(c2cc(-c3ccc(F)cn3)c(Cl)cn2)CC1 [Example A-18, N-[1-(5′-chloro-5-fluoro-2,4′-bipyridin-2′-yl)piperidin-4-yl]methanesulfonamide]	82	343	58.9
CCCNC(=O)COC1CCN(c2cc(-c3ncccc3C)c(Cl)cn2)CC1 [Example A-40, 2-{[1-(5′-chloro-3-methyl-2,4′-bipyridin-2′-yl)piperidin-4-yl]oxy}-N-propylacetamide]	114	254	70.2
CS(=O)(=O)NC1CCN(c2cc(-c3ccc(Cl)cn3)c(Cl)cn2)CC1 [Example A-11, N-[1-(5,5′-dichloro-2,4′-bipyridin-2′-yl)piperidin-4-yl]methanesulfonamide]	152	32.9	78
Cc1cnc(-c2ccnc(N3CCC(NS(C)(=O)=O)CC3)c2)c(C)c1 [Example A-143, N-[1-(3,5-dimethyl-2,4′-bipyridin-2′-yl)piperidin-4-yl]methanesulfonamide]	10.4	12.2	96.3
Cc1cccnc1-c1cc(N2CC(C(=O)N(C)[C@@H]3CS(=O)(=O)C[C@H]3O)C2)ncc1Cl [Example A-69, 1-(5′-chloro-3-methyl-2,4′-bipyridin-2′-yl)-N-[(3S,4S)-4-hydroxy-1,1-dioxidotetrahydro-3-thienyl]-N-methylazetidine-3-carboxamide]	148	189	74.4
CS(=O)(=O)CCC(=O)N1CCN(c2ccc(Cl)c(-c3ccccn3)n2)CC1 [Example A-99, 3-chloro-6-{4-[3-(methylsulfonyl)propanoyl]piperazin-1-yl}-2,2′-bipyridine]	23.9	33.1	94.4
Cc1cccnc1-c1ccnc(N2CCC(NS(C)(=O)=O)CC2)n1 [Example A-50, N-{1-[4-(3-methylpyridin-2-yl)pyrimidin-2-yl]piperidin-4-yl}methanesulfonamide]	27.4	17.7	97.1
Cc1cccnc1-c1cc(N2CCC(C(=O)N3CCc4c(c(C(C)C)nn4C)C3)CC2)ncc1Cl [Example A-65, 5′-chloro-2′-{4-[(3-isopropyl-1-methyl-1,4,6,7-tetrahydro-5H-pyrazolo[4,3-c]pyridin-5-yl)carbonyl]piperidin-1-yl}-3-methyl-2,4′-bipyridine]	124	145	78.5
COC(=O)N1CCN(c2ncc(Cl)c(-c3ncccc3C)n2)CC1 [Example A-36, methyl 4-[5-chloro-4-(3-methylpyridin-2-yl)pyrimidin-2-yl]piperazine-1-carboxylate]	109	246	72.7
Cc1cccnc1-c1cc(N2CCC(OCC(=O)NC(C)(C)C)CC2)ncc1Cl [Example A-42, N-tert-butyl-2-{[1-(5′-chloro-3-methyl-2,4′-bipyridin-2′-yl)piperidin-4-yl]oxy}acetamide]	37.1	125	80.5
Cc1cccnc1-c1cc(N2CCC(C(=O)N[C@@H]3CS(=O)(=O)C[C@H]3O)CC2)ncc1Cl [Example A-68, 1-(5′-chloro-3-methyl-2,4′-bipyridin-2′-yl)-N-[(3S,4S)-4-hydroxy-1,1-dioxidotetrahydro-3-thienyl]piperidine-4-carboxamide]	54.4	120	88.8
Cc1cnc(-c2cc(N3CCC(CS(N)(=O)=O)CC3)ncc2Cl)c(C)c1 [Example A-118, 1-[1-(5′-chloro-3,5-dimethyl-2,4′-bipyridin-2′-yl)piperidin-4-yl]methanesulfonamide]	8.46	11.1	93.8
Cc1cccnc1-c1cc(N2CCC(C(=O)N[C@@H]3CCN(S(C)(=O)=O)C3)CC2)ncc1Cl [Example A-57, 1-(5′-chloro-3-methyl-2,4′-bipyridin-2′-yl)-N-[(3R)-1-(methylsulfonyl)pyrrolidin-3-yl]piperidine-4-carboxamide]	78.2	90.7	87.9
Cc1cccnc1-c1cc(N2CCC(C(=O)N(C)[C@@H]3CS(=O)(=O)C[C@H]3O)CC2)ncc1Cl [Example A-70, 1-(5′-chloro-3-methyl-2,4′-bipyridin-2′-yl)-N-[(3S,4S)-4-hydroxy-1,1-dioxidotetrahydro-3-thienyl]-N-methylpiperidine-4-carboxamide]	27.3	42.4	105
Cc1cc(F)cnc1-c1cc(N2CCC(NS(C)(=O)=O)CC2)ncc1Cl [Example A-108, N-[1-(5′-chloro-5-fluoro-3-methyl-2,4′-bipyridin-2′-yl)piperidin-4-yl]methanesulfonamide]	11.2	20.8	91.5
Cc1cccnc1-c1cc(N2CCC(C(=O)Nc3cccc(CO)n3)CC2)ncc1Cl [Example A-75, 1-(5′-chloro-3-methyl-2,4′-bipyridin-2′-yl)-N-[6-(hydroxymethyl)pyridin-2-yl]piperidine-4-carboxamide]	47.9	93.3	88.6
